{"source": "ChEMBL document CHEMBL3632570", "about": "“Structure-Guided Design of Novel l-Cysteine Derivatives as Potent KSP Inhibitors” (ACS Med Chem Lett, 2015)", "key": {"[1]": {"target": "T1, Kinesin-like protein KIF11 (Homo sapiens, UniProt P52732)", "T1 sequence (P52732 whole entry)": "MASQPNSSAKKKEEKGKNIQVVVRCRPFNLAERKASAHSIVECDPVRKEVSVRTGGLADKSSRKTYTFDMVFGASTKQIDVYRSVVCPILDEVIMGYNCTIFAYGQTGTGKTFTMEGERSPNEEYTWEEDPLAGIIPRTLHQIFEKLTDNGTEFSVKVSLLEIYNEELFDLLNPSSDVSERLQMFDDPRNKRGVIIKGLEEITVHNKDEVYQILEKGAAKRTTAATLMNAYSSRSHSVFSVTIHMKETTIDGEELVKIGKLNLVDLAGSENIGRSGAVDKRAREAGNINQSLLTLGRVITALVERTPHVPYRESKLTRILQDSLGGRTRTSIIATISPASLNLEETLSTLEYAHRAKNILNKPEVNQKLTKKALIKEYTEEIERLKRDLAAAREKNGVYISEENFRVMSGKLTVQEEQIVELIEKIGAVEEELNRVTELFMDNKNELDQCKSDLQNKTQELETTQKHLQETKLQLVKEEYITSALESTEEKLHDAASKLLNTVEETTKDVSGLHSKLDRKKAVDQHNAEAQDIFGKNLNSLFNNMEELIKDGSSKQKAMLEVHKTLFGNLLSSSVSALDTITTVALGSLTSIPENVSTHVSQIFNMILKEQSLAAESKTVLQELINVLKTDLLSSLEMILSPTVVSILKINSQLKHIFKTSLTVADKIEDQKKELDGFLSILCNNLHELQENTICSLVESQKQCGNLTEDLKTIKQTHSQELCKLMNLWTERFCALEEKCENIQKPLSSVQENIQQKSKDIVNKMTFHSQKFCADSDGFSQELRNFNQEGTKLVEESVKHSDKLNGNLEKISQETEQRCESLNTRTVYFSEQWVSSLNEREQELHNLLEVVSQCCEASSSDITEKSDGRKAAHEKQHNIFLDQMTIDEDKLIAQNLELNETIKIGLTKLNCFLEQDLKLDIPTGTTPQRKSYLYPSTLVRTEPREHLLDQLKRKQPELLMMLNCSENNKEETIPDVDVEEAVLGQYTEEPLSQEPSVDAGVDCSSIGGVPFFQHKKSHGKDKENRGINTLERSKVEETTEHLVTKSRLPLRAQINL", "experiment": "Inhibition of His-tagged KSP motor domain (1 to 369) (unknown origin) assessed as inhibition of microtubule-stimulated KSP ATPase activity preincuabted for 30 mins followed by ATP addition measured after 15 mins by Kinase-Glo assay"}, "[2]": {"tested_on": "HCT-116", "experiment": "Growth inhibition of human HCT116 cells after 72 hrs by MTS assay", "format": "functional, cell-based", "settings": "HCT-116, 72 h"}, "[3]": {"target": "T2, Chromosome-associated kinesin KIF4A (Homo sapiens) (UniProt O95239)", "T2 sequence (whole entry)": "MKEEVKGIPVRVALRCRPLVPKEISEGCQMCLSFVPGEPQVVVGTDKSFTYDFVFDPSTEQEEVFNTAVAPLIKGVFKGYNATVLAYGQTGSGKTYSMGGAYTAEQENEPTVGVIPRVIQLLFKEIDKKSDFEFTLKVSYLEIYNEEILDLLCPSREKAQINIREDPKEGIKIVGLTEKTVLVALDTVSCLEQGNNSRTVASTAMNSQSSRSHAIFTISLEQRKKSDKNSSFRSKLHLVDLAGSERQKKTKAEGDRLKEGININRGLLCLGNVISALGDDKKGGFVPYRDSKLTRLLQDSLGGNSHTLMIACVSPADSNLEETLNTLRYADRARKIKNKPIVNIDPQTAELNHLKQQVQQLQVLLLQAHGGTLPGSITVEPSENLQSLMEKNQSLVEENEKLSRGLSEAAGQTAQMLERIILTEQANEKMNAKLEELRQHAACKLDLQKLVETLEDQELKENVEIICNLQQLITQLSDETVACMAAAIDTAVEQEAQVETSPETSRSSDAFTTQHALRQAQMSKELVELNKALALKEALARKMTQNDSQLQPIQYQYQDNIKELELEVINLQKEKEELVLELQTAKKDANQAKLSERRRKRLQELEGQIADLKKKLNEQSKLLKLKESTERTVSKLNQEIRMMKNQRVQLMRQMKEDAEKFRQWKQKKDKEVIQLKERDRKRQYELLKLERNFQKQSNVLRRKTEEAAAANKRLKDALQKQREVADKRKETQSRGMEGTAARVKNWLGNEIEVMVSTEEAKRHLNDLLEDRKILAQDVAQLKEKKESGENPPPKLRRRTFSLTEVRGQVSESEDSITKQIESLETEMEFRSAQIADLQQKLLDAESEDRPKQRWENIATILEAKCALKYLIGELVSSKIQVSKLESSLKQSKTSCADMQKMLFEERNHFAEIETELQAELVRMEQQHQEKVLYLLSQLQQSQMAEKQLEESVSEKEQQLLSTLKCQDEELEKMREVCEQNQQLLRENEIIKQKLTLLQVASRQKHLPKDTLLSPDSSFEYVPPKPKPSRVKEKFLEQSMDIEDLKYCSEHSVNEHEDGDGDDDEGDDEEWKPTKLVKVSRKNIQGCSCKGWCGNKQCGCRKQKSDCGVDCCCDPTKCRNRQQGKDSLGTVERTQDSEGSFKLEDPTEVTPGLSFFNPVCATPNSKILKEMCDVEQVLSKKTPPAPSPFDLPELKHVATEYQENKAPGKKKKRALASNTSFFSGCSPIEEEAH", "experiment": "Inhibition of microtubule-stimulated KIF4A motor domain (1 to 346) (unknown origin) ATPase activity at 6.3 uM"}, "[4]": {"tested_on": "Mus musculus", "experiment": "Toxicity in athymic nude BALB/cAJcL mouse xenografted with HCT116 cells assessed as body weight loss at 25 mg/kg, iv administered on days 1,3,5,8,10 and 12 relative to vehicle-treated control", "format": "organism-based, HCT-116", "settings": "in vivo"}, "[5]": {"tested_on": "Mus musculus", "experiment": "Toxicity in athymic nude BALB/cAJcL mouse xenografted with HCT116 cells assessed as mortality at 25 mg/kg, iv administered on days 1,3,5,8,10 and 12", "format": "organism-based, HCT-116", "settings": "in vivo"}}, "note": "The source made the active and inactive calls. No cut-off for these calls is given here."}
{"smiles": "COc1ccc(C2(SC[C@H](N)C(=O)O)c3ccccc3CCc3ccccc32)cc1", "values": [{"measurement": "IC50", "setting": "[1]", "result": 14, "unit": "nM"}, {"measurement": "IC50", "setting": "[2]", "result": 28, "unit": "nM"}, {"measurement": "inhibition", "setting": "[3]", "result": "inactive"}, {"measurement": "Activity", "setting": "[4]", "result": "Toxic"}, {"measurement": "Activity", "setting": "[5]", "result": "Non-toxic"}]}
{"smiles": "N[C@@H](CSC1(c2ccc(C(F)(F)F)cc2)c2ccccc2CCc2ccccc21)C(=O)O", "values": [{"measurement": "IC50", "setting": "[1]", "result": 21, "unit": "nM"}, {"measurement": "IC50", "setting": "[2]", "result": 11, "unit": "nM"}, {"measurement": "inhibition", "setting": "[3]", "result": "inactive"}, {"measurement": "Activity", "setting": "[4]", "result": "Toxic"}, {"measurement": "Activity", "setting": "[5]", "result": "Non-toxic"}]}
